# Test results as given in US11707500B2, “Growth promoting peptides, and uses thereof” (NURITAS LIMITED, priority 2015, dated 2023).
# Legend:
# [1] = system: Human Dermal Fibroblasts (HDF); experiment: BrdU cell proliferation assay; type: cell-based; details: HDF incubated 24 h with 5, 0.5 or 0.05 μg/ml synthetic peptide; percentage of untreated control
# Experimental: BrDu is incorporated into newly synthesised DNA strands of actively proliferating cells. Following partial denaturation of double stranded DNA, Brdu is detected immunochemically allowing the assessment of the population of cells which are synthesizing DNA.
# Human Dermal Fibroblasts (HDF—Sigma 10605a) were seeded in a 96 well plate at 10,000 cells per well in DMEM containing 10% fetal calf serum (FCS), 1% Pen/strep, 1% L-glutamine and allowed to adhere for 24 h.
# Following the initial 24 h incubation the cells were incubated with 5 μg/ml, 0.5 μg/ml or 0.05 μg/ml synthetic peptide for 24 h respectively.
# After 18 h incubation with synthetic peptides 20 μl BrDu reagent was added to each well.
# At 24 h incubation the cell were fixed and the amount of […] was measured using the BrdU Cell Proliferation Assay, all steps were carried out according to the manufacturer's instructions.
# Results were calculated as a percentage of the untreated control. An increase in optical density reading indicates greatER incorporation of BrDu and increase cell proliferation.
# [2] = system: Human Dermal Fibroblasts (HDF); experiment: BrdU cell proliferation assay; type: cell-based; details: text on FIGS. 1-100; incubated with synthetic peptide 24 h; vs untreated control
substance,measurement,setting,value
73 (ASSNLDLLGFG) [compound 73],INCREASE IN PROLIFERATION,[1],16%
74 (DEEEEQGEEEINK) [compound 74],INCREASE IN PROLIFERATION,[1],29%
83 (SRGPIYSNE) [compound 83],INCREASE IN PROLIFERATION,[1],32%
84 (EDDEEEEQGEEEINK) [compound 84],INCREASE IN PROLIFERATION,[1],20%
85 (DDEEEEQGEEEINK) [compound 85],INCREASE IN PROLIFERATION,[1],35%
93 (ITASSNLNLLGFG) [compound 93],INCREASE IN PROLIFERATION,[1],26%
97 (LVIPVNGPGKFE) [compound 97],INCREASE IN PROLIFERATION,[1],26%
98 (LVIPVNGPGKFEA) [compound 98],INCREASE IN PROLIFERATION,[1],49%
105 (LVIPVNGPGKF) [compound 105],INCREASE IN PROLIFERATION,[1],40%
112 (VVIIPAGHPVAITASSNLNLLGFG) [compound 112],INCREASE IN PROLIFERATION,[1],15%
114 (YPQLQDLDL) [compound 114],INCREASE IN PROLIFERATION,[1],119%
121 (LVIPVNGPGK) [compound 121],INCREASE IN PROLIFERATION,[1],48%
124 (VIPVNGPGK) [compound 124],INCREASE IN PROLIFERATION,[1],15%
146 (RHGEWRPSY) [compound 146],INCREASE IN PROLIFERATION,[1],80%
158 (NYDEGSEPRVPAQRE) [compound 158],INCREASE IN PROLIFERATION,[1],21%
181 (TIKLPAGTTSYLVNQDDEEDLRLVD) [compound 181],INCREASE IN PROLIFERATION,[1],33%
222 (IDGYDTPVEGR) [compound 222],INCREASE IN PROLIFERATION,[1],110%
226 (IYGPDTGVDYKDNQMR) [compound 226],INCREASE IN PROLIFERATION,[1],30%
247 (EGYYGEQQQQPGMTR) [compound 247],INCREASE IN PROLIFERATION,[1],28%
248 (GYYGEQQQQPGMTR) [compound 248],INCREASE IN PROLIFERATION,[1],86%
249 (EEGYYGEQQQQPGMTR) [compound 249],INCREASE IN PROLIFERATION,[1],30%
252 (SSEEGYYGEQQQQPGMTR) [compound 252],INCREASE IN PROLIFERATION,[1],111%
253 (SEEGYYGEQQQQPGMTR) [compound 253],INCREASE IN PROLIFERATION,[1],112%
256 (YGEQQQQPGMTR) [compound 256],INCREASE IN PROLIFERATION,[1],117%
257 (YYGEQQQQPGMTR) [compound 257],INCREASE IN PROLIFERATION,[1],118%
270 (TVFNGVLRPGQLL) [compound 270],INCREASE IN PROLIFERATION,[1],47%
272 (NGVLRPGQL) [compound 272],INCREASE IN PROLIFERATION,[1],97%
285 (DALEPDNR) [compound 285],INCREASE IN PROLIFERATION,[1],81%
330 (VIPAGHPVAVR) [compound 330],INCREASE IN PROLIFERATION,[1],18%
337 (IEKILLEE) [compound 337],INCREASE IN PROLIFERATION,[1],8%
341 (EVEERSQNIF) [compound 341],INCREASE IN PROLIFERATION,[1],83%
359 (GAFTPLQYKSYQD) [compound 359],INCREASE IN PROLIFERATION,[1],15%
365 (GAFTPLQYK) [compound 365],INCREASE IN PROLIFERATION,[1],58%
403 (LGAPDVGHPM) [compound 403],INCREASE IN PROLIFERATION,[1],51%
410 (YRELGAPDVGHPMSE) [compound 410],INCREASE IN PROLIFERATION,[1],73%
452 (HPRPPKPDAPR) [compound 452],INCREASE IN PROLIFERATION,[1],76%
453 (LQQAPPPPQR) [compound 453],INCREASE IN PROLIFERATION,[1],25%
454 (VGWGEQPWSPY) [compound 454],INCREASE IN PROLIFERATION,[1],38%
455 (FHMPP) [compound 455],INCREASE IN PROLIFERATION,[1],47%
457 (FWMA) [compound 457],INCREASE IN PROLIFERATION,[1],114%
460 (HMPSS) [compound 460],INCREASE IN PROLIFERATION,[1],38%
461 (HRFR) [compound 461],INCREASE IN PROLIFERATION,[1],85%
462 (HRRS) [compound 462],INCREASE IN PROLIFERATION,[1],15%
463 (HSPR) [compound 463],INCREASE IN PROLIFERATION,[1],100%
464 (HWFA) [compound 464],INCREASE IN PROLIFERATION,[1],18%
465 (MFRR) [compound 465],INCREASE IN PROLIFERATION,[1],96%
467 (MPPS) [compound 467],INCREASE IN PROLIFERATION,[1],90%
468 (MPRR) [compound 468],INCREASE IN PROLIFERATION,[1],82%
ASSNLDLLGFG [SEQ ID NO: 73],increase in HDF cell proliferation,[2],16%
DDEEEEQGEEEINK [SEQ ID NO: 85],increase in HDF cell proliferation,[2],35%
DEEEEQGEEEINK [SEQ ID NO: 74],increase in HDF cell proliferation,[2],29%
DSINALEPDHR [SEQ ID NO: 474],increase in HDF cell proliferation,[2],121%
EDDEEEEQGEEEINK [SEQ ID NO: 84],increase in HDF cell proliferation,[2],20%
EEGYYGEQQQQPGMTR [SEQ ID NO: 249],increase in HDF cell proliferation,[2],30%
EGYYGEQQQQPGMTR [SEQ ID NO: 247],increase in HDF cell proliferation,[2],28%
EVEERSQNIF [SEQ ID NO: 341],increase in HDF cell proliferation,[2],83%
FHMPP [SEQ ID NO: 455],increase in HDF cell proliferation,[2],47%
FWM (FWMA) [SEQ ID NO: 457],increase in HDF cell proliferation,[2],114%
GAFTPLQYK [SEQ ID NO: 365],increase in HDF cell proliferation,[2],58%
GAFTPLQYKSYQD [SEQ ID NO: 359],increase in HDF cell proliferation,[2],15%
GALMLPHYN [SEQ ID NO: 504],increase in HDF cell proliferation,[2],119%
GALMLPHYNSR [SEQ ID NO: 505],increase in HDF cell proliferation,[2],118%
GYYGEQQQQPGMTR [SEQ ID NO: 248],increase in HDF cell proliferation,[2],86%
HMPSS [SEQ ID NO: 460],increase in HDF cell proliferation,[2],38%
HPMS [SEQ ID NO: 495],increase in HDF cell proliferation,[2],68%
HPRPPKPDAPR [SEQ ID NO: 452],increase in HDF cell proliferation,[2],76%
HRFR [SEQ ID NO: 461],increase in HDF cell proliferation,[2],85%
HRRS [SEQ ID NO: 462],increase in HDF cell proliferation,[2],15%
HSPR [SEQ ID NO: 463],increase in HDF cell proliferation,[2],100%
HWF (HWFA) [SEQ ID NO: 464],increase in HDF cell proliferation,[2],18%
IDGYDTPVEGR [SEQ ID NO: 222],increase in HDF cell proliferation,[2],110%
IEKILLEE [SEQ ID NO: 337],increase in HDF cell proliferation,[2],8%
IFEDAITIPGR [SEQ ID NO: 477],increase in HDF cell proliferation,[2],81%
ITASSNLNLLGFG [SEQ ID NO: 93],increase in HDF cell proliferation,[2],26%
IYGPDTGVDYKDNQMR [SEQ ID NO: 226],increase in HDF cell proliferation,[2],30%
KTLDYWPSLR [SEQ ID NO: 479],increase in HDF cell proliferation,[2],106%
LDALEPDNRIESE [SEQ ID NO: 478],increase in HDF cell proliferation,[2],76%
LEPDNR [SEQ ID NO: 485],increase in HDF cell proliferation,[2],81%
LGAPDVGHPM [SEQ ID NO: 403],increase in HDF cell proliferation,[2],51%
LQQAPPPPQR [SEQ ID NO: 453],increase in HDF cell proliferation,[2],25%
LRGFSK [SEQ ID NO: 501],increase in HDF cell proliferation,[2],43%
LVIPVNGPGK [SEQ ID NO: 121],increase in HDF cell proliferation,[2],48%
LVIPVNGPGKF [SEQ ID NO: 105],increase in HDF cell proliferation,[2],40%
LVIPVNGPGKFE [SEQ ID NO: 97],increase in HDF cell proliferation,[2],26%
LVIPVNGPGKFEA [SEQ ID NO: 98],increase in HDF cell proliferation,[2],49%
LVSHPIAAHEGR [SEQ ID NO: 482],increase in HDF cell proliferation,[2],113%
MFRR [SEQ ID NO: 465],increase in HDF cell proliferation,[2],96%
MPMP [SEQ ID NO: 497],increase in HDF cell proliferation,[2],58%
MPPS [SEQ ID NO: 467],increase in HDF cell proliferation,[2],90%
MPRR [SEQ ID NO: 468],increase in HDF cell proliferation,[2],82%
NGVLRPGQL [SEQ ID NO: 272],increase in HDF cell proliferation,[2],97%
NYDEGSEPRVPAQRE [SEQ ID NO: 158],increase in HDF cell proliferation,[2],21%
PHMP [SEQ ID NO: 470],increase in HDF cell proliferation,[2],119%
PHMPS [SEQ ID NO: 471],increase in HDF cell proliferation,[2],38%
PNSM [SEQ ID NO: 499],increase in HDF cell proliferation,[2],113%
PRRF [SEQ ID NO: 472],increase in HDF cell proliferation,[2],77%
RHGEWGPSY [SEQ ID NO: 480],increase in HDF cell proliferation,[2],102%
RHGEWRPSY [SEQ ID NO: 146],increase in HDF cell proliferation,[2],80%
RSQNIF [SEQ ID NO: 502],increase in HDF cell proliferation,[2],68%
SEEGYYGEQQQQPGMTR [SEQ ID NO: 253],increase in HDF cell proliferation,[2],112%
SRGPIYSNE [SEQ ID NO: 83],increase in HDF cell proliferation,[2],32%
SSEEGYYGEQQQQPGMTR [SEQ ID NO: 252],increase in HDF cell proliferation,[2],111%
TIKLPAGTTSYLVNQDDEEDLRLVD [SEQ ID NO: 181],increase in HDF cell proliferation,[2],33%
TVFNGVLRPGQLL [SEQ ID NO: 270],increase in HDF cell proliferation,[2],47%
VGWGEQPWSPY [SEQ ID NO: 454],increase in HDF cell proliferation,[2],38%
VIPAGHPVAVR [SEQ ID NO: 330],increase in HDF cell proliferation,[2],18%
VIPVNGPGK [SEQ ID NO: 124],increase in HDF cell proliferation,[2],15%
VVIIPAGHPVAITASSNLNLLGFG [SEQ ID NO: 112],increase in HDF cell proliferation,[2],15%
WDP (WDPA) [SEQ ID NO: 500],increase in HDF cell proliferation,[2],6%
WMK (WMKA) [SEQ ID NO: 473],increase in HDF cell proliferation,[2],41%
YGEQQQQPGMTR [SEQ ID NO: 256],increase in HDF cell proliferation,[2],117%
YLRGFS [SEQ ID NO: 503],increase in HDF cell proliferation,[2],125%
YPQLQDLDL [SEQ ID NO: 114],increase in HDF cell proliferation,[2],119%
YRELGAPDVGHPMSE [SEQ ID NO: 410],increase in HDF cell proliferation,[2],73%
YYGEQQQQPGMTR [SEQ ID NO: 257],increase in HDF cell proliferation,[2],118%
